According to patent US20140050779A1, “[…]-2 INHIBITORS AND USES THEREOF” (SINGAPORE HEALTH SERVICES PTE. LTD., priority 2011, published 2014):

Tests used:
hM1 = target: T1, hM1 (Homo sapiens, UniProt P11229); assay: himbacine binding to cloned muscarinic receptor subtypes; settings: cloned receptor subtype; data not shown
T1 sequence (P11229 1-460): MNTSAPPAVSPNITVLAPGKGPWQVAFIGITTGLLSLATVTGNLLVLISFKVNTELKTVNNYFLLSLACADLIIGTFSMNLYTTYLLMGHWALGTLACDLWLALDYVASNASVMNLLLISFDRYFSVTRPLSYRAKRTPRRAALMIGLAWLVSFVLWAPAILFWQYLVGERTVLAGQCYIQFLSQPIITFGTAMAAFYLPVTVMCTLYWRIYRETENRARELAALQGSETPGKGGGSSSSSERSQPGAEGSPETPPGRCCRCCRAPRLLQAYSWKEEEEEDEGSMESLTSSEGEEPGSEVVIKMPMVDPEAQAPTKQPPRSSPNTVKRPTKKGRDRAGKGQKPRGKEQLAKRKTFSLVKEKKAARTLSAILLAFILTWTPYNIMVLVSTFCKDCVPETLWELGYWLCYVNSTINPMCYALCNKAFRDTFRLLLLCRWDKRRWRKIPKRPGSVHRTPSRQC

TG-5 = assay: Western blot of TG proteins in mouse scleral fibroblasts after muscarinic agents; type: cell-based; settings: 0.01-10 μM for 5 days
TGase-3 transcript = assay: qPCR of TGases mRNA in mouse scleral fibroblasts after muscarinic agents; type: cell-based; settings: 0.01-10 μM for 5 days, qPCR normalized to GAPDH
Method: (§1) P2 cultured mouse scleral fibroblasts were treated with atropine or carbachol at different concentrations of 0.01 μM, 0.1 μM, […], 5 μM and 10 μM for 5 days. Following 5 days of treatment, the total RNA was extracted from these cells and TGases transcript level was quantified via qPCR analysis. Height of bars show the means of three independent samples and error bars represent standard deviation. Values are normalized against GAPDH house keeping genes.
(§2) All cells used in examples described herein were between passages 2-4. Passaged cells were plated at a concentration of 2×10^5/mL into 6 well plates containing DMEM with 10% FBS. The cells were seen to attach to the bottom of the culture wells after 4 hours. Old media was removed from wells and 1 mL of drug was added with fresh full medium and incubated at 37° C. Fresh drugs were replaced daily consecutively for the next 5 days to avoid oxidation. The drugs/media was removed and wells were washed twice with 1×PBS. 200 μl of RIPA lysis buffer was added per well and incubated for 5 minutes and cells were scrapped into an eppendorf tube. The cells were stored at −20° C. until sonication. The cells were sonicated on ice thrice at 20% output power for 5 seconds each time and rested 1 minute in between each turn. Cell debris was spun down at 12000 rpm for 20 minutes. The supernatant was poured into a new eppendorf tube and cell concentrations were determined using the Dc Protein assay Kit (Bio-Rad, MA). Passaged cells were plated at a concentration of 1×10^5 into 6 well plates containing DMEM with 10% FBS. The cells were seen to attach to the bottom of the culture wells after 4 hours. Freshly prepared muscarinic agents' at base line, 0.1, 1, 10 and 100 μM concentrations were added for 5 days (Table 2). The culture medium was removed and fresh medium containing the same muscarinic drug added every day to avoid drug changes such as atropine oxidation. Cell lysate was collected for relative quantitative (q) PCR and protein analysis at day 5.
(§3) Total RNA was isolated from cultured human and mouse scleral fibroblasts using TRIzol reagent (Invitrogen life technologies, USA) in accordance with the manufacturer's instructions Chomczynski P, Sacchi N., “Single-step method of RNA isolation by acid guanidinium thiocyanate-phenol-chloroform extraction”, Anal. Biochem. 1987 April; 162(1):156-9. Genomic DNA was removed by digestion with DNase I (Amp Grade; Invitrogen-Gibco) for 15 minutes at room temperature. One microgram of total RNA was reverse-transcribed with random hexamers by using a first-strand cDNA synthesis kit (Invitrogen-Gibco). qPCR was performed in a 384-well plate format on an Roche 480 LightCycler Detection System (Roche Applied Science, Mannheim, Germany) with efficiency corrected software 4.0. PCR was performed using 50 ng of cDNA of each sample. The pre-validated hydrolysis probes for TG-2 were from human and mouse universal probe library (Roche, CA) and the primers for human and mouse are shown in Table 3. GAPDH Internal Standard (Roche) was used as an endogenous control. To standardize and evaluate scleral gene expression, aliquots of the same cDNA (50 ng) preparation were used as templates in all PCR reactions. The data was analyzed by comparative CT (MCT) method as previously described in Brink N, Szamel M, Young A R, Wittern K P, Bergemann J., “Comparative quantification of IL-1, IL-10, Il-10r, TNF and IL-7 mRNA levels in UV-irradiated human skin in vivo”, Inflamm Res. 2000 June; 49(6):290-6.

TGase 5 transcript = assay: as above; type: cell-based; settings: 0.01-10 μM for 5 days, qPCR normalized to GAPDH
Method: as §1, §2, §3

## C[C@@H]1OC(=O)[C@H]2C[C@H]3CCCC[C@@H]3[C@@H](/C=C/[C@H]3CCC[C@H](C)N3C)[C@@H]12 [himbacine]
hM1
  Kd: 83 nM

## CN1[C@@H]2CC[C@H]1C[C@@H](OC(=O)C(CO)c1ccccc1)C2 (stereo partly shown) [atropine]
TG-5
  TG-5 protein level: reduced
TGase-3 transcript
  TGase-3 transcript level: upregulated
TGase 5 transcript
  TGase 5 transcript level: down regulated
